Consider 1 molecule from PMC6934184, “Selective DNA-PKcs inhibition extends the therapeutic index of localized radiotherapy and chemotherapy” (The Journal of Clinical Investigation, 2019).

For this assay, the target named is T1, AMPK (A1/B1/G2) (Homo sapiens, UniProt Q13131).
T1 construct: purchased Thermo Fisher Scientific (Life Technologies) SelectScreen
The experiment in a line: SelectScreen LanthaScreen. It counts as binding. The settings on record: read-out: % displacement. The essentials:
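NU5455 was profiled across the SelectScreen Broad panel of kinase activity and binding assays. Z'LYTE reactions such as CSF1R ran at apparent Km ATP, while the Adapta CAMK1 assay used ATP listed as 10. Values are given as percent.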

T1 sequence (Q13131 whole entry): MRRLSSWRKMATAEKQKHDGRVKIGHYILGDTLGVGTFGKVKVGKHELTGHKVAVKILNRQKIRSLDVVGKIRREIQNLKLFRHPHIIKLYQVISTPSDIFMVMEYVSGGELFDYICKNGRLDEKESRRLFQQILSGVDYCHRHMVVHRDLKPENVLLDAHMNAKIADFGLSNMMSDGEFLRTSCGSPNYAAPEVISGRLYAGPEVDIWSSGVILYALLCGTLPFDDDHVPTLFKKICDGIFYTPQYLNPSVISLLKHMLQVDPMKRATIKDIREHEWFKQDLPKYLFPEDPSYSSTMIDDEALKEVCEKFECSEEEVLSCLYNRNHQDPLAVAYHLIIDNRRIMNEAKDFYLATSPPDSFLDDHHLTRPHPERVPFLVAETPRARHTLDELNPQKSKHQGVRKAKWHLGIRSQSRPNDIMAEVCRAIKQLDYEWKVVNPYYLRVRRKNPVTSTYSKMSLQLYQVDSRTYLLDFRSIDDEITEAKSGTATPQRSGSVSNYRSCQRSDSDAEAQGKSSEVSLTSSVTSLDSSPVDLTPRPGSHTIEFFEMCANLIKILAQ
T1 sequence (Q9Y478 whole entry partner): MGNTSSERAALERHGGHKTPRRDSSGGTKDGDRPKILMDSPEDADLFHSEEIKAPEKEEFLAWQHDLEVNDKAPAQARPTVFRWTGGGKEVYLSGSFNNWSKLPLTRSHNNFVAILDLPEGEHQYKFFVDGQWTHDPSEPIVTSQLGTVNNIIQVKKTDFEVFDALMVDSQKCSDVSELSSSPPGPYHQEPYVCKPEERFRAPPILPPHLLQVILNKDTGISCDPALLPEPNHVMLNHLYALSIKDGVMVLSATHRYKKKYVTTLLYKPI
T1 sequence (Q9UGJ0 whole entry partner): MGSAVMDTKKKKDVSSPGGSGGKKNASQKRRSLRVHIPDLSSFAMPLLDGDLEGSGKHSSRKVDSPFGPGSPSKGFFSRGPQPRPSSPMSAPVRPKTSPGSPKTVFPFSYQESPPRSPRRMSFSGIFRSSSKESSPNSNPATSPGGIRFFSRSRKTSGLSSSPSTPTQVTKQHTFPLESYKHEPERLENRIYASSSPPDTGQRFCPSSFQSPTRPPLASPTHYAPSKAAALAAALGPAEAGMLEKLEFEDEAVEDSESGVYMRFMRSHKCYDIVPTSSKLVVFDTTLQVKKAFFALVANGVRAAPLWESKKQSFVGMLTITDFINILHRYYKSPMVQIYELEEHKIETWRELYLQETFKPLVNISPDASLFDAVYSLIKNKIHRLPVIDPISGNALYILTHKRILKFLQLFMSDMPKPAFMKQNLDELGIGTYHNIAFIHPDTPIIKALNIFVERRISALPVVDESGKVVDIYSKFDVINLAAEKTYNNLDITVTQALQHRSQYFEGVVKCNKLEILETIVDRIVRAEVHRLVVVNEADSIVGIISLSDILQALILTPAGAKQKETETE

Regarding `CN(C(=O)CN1CCOCC1)c1ccc2sc3c(-c4cccc5c(=O)cc(N6CC7CCC(C6)O7)oc45)cccc3c2c1` [NU5455], the inhibition at 1 µM was found to be 2.4%.
